Numbered stars: 1 amine (or outer) side, 2 acyl side, 3 side chain; on linkers, the order of the positions; unused ones are H or OH. Bridge positions count the residues as written; N and C are the ends. Square brackets hold non-standard residues; d marks the D form. Peptide text beside a SMILES is read from it. * marks the point of attachment. hPhe(3,5-F2-4-CF3) = N[C@@H](CCc1cc(F)c(C(F)(F)F)c(F)c1)C(=O)O; hPhe(3-Cl-4-CF3) = N[C@@H](CCc1ccc(C(F)(F)F)c(Cl)c1)C(=O)O; NEtPhe(4-CF3) = CCN[C@@H](Cc1ccc(C(F)(F)F)cc1)C(=O)O; NMePhe(4-Cl) = CN[C@@H](Cc1ccc(Cl)cc1)C(=O)O; X83 = Cc1ccc(CC[C@H](N[*:1])C(=O)[*:2])cc1; NMedβ3hAla = C[C@H](CC(=O)[*:2])N(C)[*:1]; Phe(3-I) = N[C@@H](Cc1cccc(I)c1)C(=O)O; Pro(4,4-F2) = O=C(O)[C@@H]1CC(F)(F)CN1; X38 = CN1CCN(CCN(CC(=O)[*:2])[*:1])CC1; NMeY = CN[C@@H](Cc1ccc(O)cc1)C(=O)O; NMeCha = CN[C@@H](CC1CCCCC1)C(=O)O; NMeChg = CN[C@H](C(=O)O)C1CCCCC1; NMeD = CN[C@@H](CC(=O)O)C(=O)O; CH2CONHtBu = CC(C)(C)NC(=O)C*; NMeL = CN[C@@H](CC(C)C)C(=O)O; NMehSer = CN[C@@H](CCO)C(=O)O; NMeV = CN[C@H](C(=O)O)C(C)C; d(β3hA) = C[C@@H](N)CC(=O)O; NMeS = CN[C@@H](CO)C(=O)O; NMeA = CN[C@@H](C)C(=O)O; NMeAib = CNC(C)(C)C(=O)O; Nle = CCCC[C@H](N)C(=O)O; Piperidide = C1CCN(*)CC1; Pra = C#CC[C@H](N)C(=O)O; Ac5c = NC1(C(=O)O)CCCC1; Aze = O=C(O)[C@@H]1CCN1; Ac4c = NC1(C(=O)O)CCC1; Sar = CNCC(=O)O Bounds are passed on as bounds.

In one assay the test system is Human pancreatic cancer cell line AsPC-1 (G12D mutation Kras). Briefly: AsPC-1 cell growth inhibition (AsPC-1 CGI). In kind it is cell-based. The note with it: read-out: AsPC-1 cell growth inhibition, 50% growth inhibitory concentration (IC50 value); 96 hours, CellTiter-Glo, values classified in ranges. A general note: In ATP-based viability assays light output follows the ATP content of the culture.
Description: Test compounds were serially dilated with dimethyl sulfoxide, and 200 nL was then dispensed to a U-bottom 96-well plate using Labcyte Echo. […] The cell suspension was dispensed to a. plate containing a test compound at 100 μL per well and incubated at 37° C. in a 5% carbon dioxide gas incubator. 96 hours later, 80 μL of CellTiter-Glo (Promega) was added to each well and fluorescence was measured.
With `CC[C@H](C)[C@@H]1NC(=O)[C@H](CC(C)C)N(C)C(=O)C[C@@H](C)NC(=O)[C@H](C(C)C)N(C)C(=O)C2(CCCC2)NC(=O)[C@@H]2CCCN2C(=O)[C@H](CCc2ccc(C(F)(F)F)c(Cl)c2)NC(=O)CN(C)C(=O)[C@H](CC2CCCCC2)N(C)C(=O)CN(C)C(=O)[C@@H]2CCN2C1=O` [Compound 1020] (cyclo([Ac5c][NMeV][d(β3hA)][NMeL]I[Aze][Sar][NMeCha][Sar][hPhe(3-Cl-4-CF3)]P)), the IC50 is greater than 0.5 µM.
Take `CC[C@H](C)[C@@H]1NC(=O)[C@H](CC(C)C)N(C)C(=O)C[C@@H](C)NC(=O)[C@H](C2CCCCC2)N(C)C(=O)C2(CCCC2)NC(=O)[C@@H]2CCCN2C(=O)[C@H](CCc2ccc(C(F)(F)F)c(Cl)c2)NC(=O)CN(C)C(=O)[C@H](CC2CCCCC2)N(C)C(=O)CN(C)C(=O)CN(C)C1=O` [Compound 593] (cyclo([Ac5c][NMeChg][d(β3hA)][NMeL]I[Sar][Sar][NMeCha][Sar][hPhe(3-Cl-4-CF3)]P)): the IC50 is greater than 0.5 µM.
The same measure, in the same setting: with `C#CC[C@@H]1NC(=O)[C@H](Cc2cccc(I)c2)NC(=O)CN(C)C(=O)[C@H](Cc2ccc(OC)cc2)N(C)C(=O)[C@@H]2CCN2C(=O)CN(C)C(=O)[C@H]([C@@H](C)CC)NC(=O)[C@H](CC(C)C)N(C)C(=O)C[C@@H](C(=O)N2CCCCC2)N(C)C(=O)[C@H](CC(C)C)NC(=O)C(C)(C)N(C)C1=O` [Compound 1246] ([NMeL]I[Sar][Aze][NMeY](Me)[Sar][Phe(3-I)][Pra][NMeAib]L[NMeD]-Piperidide; lactam N-11) the figure was greater than 0.5 µM.
Take `CCCC[C@@H]1NC(=O)[C@H](Cc2ccccc2)NC(=O)CN(C)C(=O)[C@H](Cc2ccc(Cl)cc2)N(C)C(=O)CN(C)C(=O)CN(C)C(=O)[C@H]([C@@H](C)CC)NC(=O)[C@H](CC(C)C)N(C)C(=O)C[C@@H](C(=O)N2CCCCC2)N(C)C(=O)[C@H](CC(C)C)NC(=O)C(C)(C)N(C)C1=O` [Compound 1043] ([NMeL]I[Sar][Sar][NMePhe(4-Cl)][Sar]F[Nle][NMeAib]L[NMeD]-Piperidide; lactam N-11): the IC50 was greater than 0.5 µM.

The target in another assay is protein-protein interaction between Kras and SOS1 (biotin-tagged human Kras loaded with GDP, His-tagged human SOS1) (Homo sapiens (Human), UniProt P01116, G12D). Briefly: Protein-protein interaction inhibition between Kras and SOS1 (KrasG12D-SOS PPI) using AlphaScreen.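 Also: kras produced in E. coli, Ni-coupled donor beads and streptavidin acceptor beads, excitation 680 nm with emission detected at 520–620 nm via singlet oxygen transfer.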 In kind it is biochemical. Particulars: AlphaScreen; biotin-tagged human Kras loaded with GDP, His-tagged human SOS1; read-out: KRAS G12D-SOS PPI IC50. (Alpha assays give light when donor and acceptor beads are brought close together.)
Turning to `CC[C@H](C)[C@@H]1NC(=O)[C@H](CC(C)C)N(C)C(=O)C[C@@H](C)NC(=O)[C@H](C(C)C)N(C)C(=O)C2(CCCC2)NC(=O)[C@@H]2CCCN2C(=O)[C@H](CCc2ccc(C(F)(F)F)c(Cl)c2)NC(=O)CN(C)C(=O)[C@H](CC2CCCCC2)N(C)C(=O)[C@@H]2CCN2C(=O)[C@H](COCC(=O)NC(C)(C)C)N(C)C1=O` [Compound 70] (cyclo([Ac5c][NMeV][d(β3hA)][NMeL]I[NMeS](CH2CONHtBu)[Aze][NMeCha][Sar][hPhe(3-Cl-4-CF3)]P)), the IC50 is 0.16 µM.
Same read-out and setting: with `CC[C@H](C)[C@@H]1NC(=O)[C@H](CCOC)N(C)C(=O)C[C@@H](C(=O)N2CCCCC2)N(C)C(=O)[C@H](C(C)C)N(C)C(=O)C2(CCCC2)NC(=O)[C@@H]2CCCN2C(=O)[C@H](CCc2ccc(C(F)(F)F)c(Cl)c2)NC(=O)CN(C)C(=O)[C@H](CC2CCCCC2)N(C)C(=O)[C@@H]2CCN2C(=O)[C@H](C)N(C)C1=O` [Compound 397] ([NMehSer](Me)I[NMeA][Aze][NMeCha][Sar][hPhe(3-Cl-4-CF3)]P[Ac5c][NMeV][NMeD]-Piperidide; lactam N-11) the figure was 0.0023 µM; with `CC[C@H](C)[C@@H]1NC(=O)[C@H](CC(C)C)N(C)C(=O)C[C@@H](C)N(C)C(=O)[C@H](C2CCCCC2)N(C)C(=O)C2(CCC2)NC(=O)[C@@H]2CC(F)(F)CN2C(=O)[C@H](CCc2cc(F)c(C(F)(F)F)c(F)c2)NC(=O)CN(C)C(=O)[C@H](Cc2ccc(C(F)(F)F)cc2)N(CC)C(=O)[C@@H]2CCN2C(=O)[C@H](C)NC1=O` [Compound 203] (cyclo(A[Aze][NEtPhe(4-CF3)][Sar][hPhe(3,5-F2-4-CF3)][Pro(4,4-F2)][Ac4c][NMeChg][NMedβ3hAla][NMeL]I)), 0.031 µM; with `CC[C@H](C)[C@@H]1NC(=O)[C@H](C)N(C)C(=O)C[C@@H](C(=O)N2CCCCC2)N(C)C(=O)[C@H](C(C)C)N(C)C(=O)C2(CCCC2)NC(=O)[C@@H]2CCCN2C(=O)[C@H](CCc2ccc(C)cc2)NC(=O)CN(C)C(=O)[C@H](CC2CCCCC2)N(C)C(=O)[C@@H]2CCN2C(=O)[C@H](C)N(C)C1=O` [Compound 976] ([NMeA]I[NMeA][Aze][NMeCha][Sar][X83]P[Ac5c][NMeV][NMeD]-Piperidide; lactam N-11), 0.18 µM.
Still for that read-out and setting: for `CC[C@H](C)[C@@H]1NC(=O)[C@H](CC(C)C)N(C)C(=O)C[C@@H](C(=O)N2CCCCC2)N(C)C(=O)[C@H](C2CCCCC2)N(C)C(=O)C2(CCCC2)NC(=O)CN(CCN2CCN(C)CC2)C(=O)[C@H](CCc2ccc(C(F)(F)F)c(Cl)c2)NC(=O)CN(C)C(=O)[C@H](CC2CCCCC2)N(C)C(=O)CN(C)C(=O)CN(C)C1=O` [Compound 2180, (11S,17S,26S,29S,33S,36S)-11-[2-[3-chloro-4-(trifluoromethyl)phenyl]ethyl]-36-cyclohexyl-17-(cyclohexylmethyl)-29-isobutyl-15,18,21,24,30,34,37-heptamethyl-9-[2-(4-methylpiperazin-1-yl)ethyl]-26-[(1S)-1-methylpropyl]-33-(piperidine-1-carbonyl)-6,9,12,15,18,21,24,27,30,34,37-undecazaspiro[4.33]octatriacontane-7,10,13,16,19,22,25,28,31,35,38-undecone] ([NMeL]I[Sar][Sar][NMeCha][Sar][hPhe(3-Cl-4-CF3)][X38][Ac5c][NMeChg][NMeD]-Piperidide; lactam N-11) the value was 0.00093 µM.

The record behind these values is patent US20240148821A1, “PHARMACEUTICAL USE OF CYCLIC PEPTIDE COMPOUND” (CHUGAI SEIYAKU KABUSHIKI KAISHA, priority 2021, published 2024).
